Laboratory results taken from patent US20240270762A1, “PENICILLIN-BINDING PROTEIN INHIBITORS” (priority 2021, published 2024).
pIC50: −log10 of the molar value. ≈ marks a conversion by molar mass, not a printed value.

What was measured:
[1] = molecular target: T1, PBP3 from Pseudomonas aeruginosa (PAO1) (Pseudomonas aeruginosa, UniProt G3XD46); assay: Bocillin-FL fluorescence polarization competition binding, P. aeruginosa PBP3; conditions: Binding affinity to P. aeruginosa PBP3; fluorescence polarization competition binding assay using Bocillin-FL; read-out: P. aeruginosa PBP3 Potency
T1 construct: made in house
Summary of the method: (§1)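 Purified PBPs pre-incubated with inhibitor (E. coli PBP3 1.5 μM, 30 min; P. aeruginosa PBP3 0.75 μM, A. baumannii PBP1a 1 μM and PBP3 0.2 μM, 15 min), then Bocillin-FL 0.1 μM (0.05 μM for PBP1a) added; FP read up to 60 min. EC50 = concentration halving bound Bocillin-FL.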

[2] = molecular target: T2, PBP3 from Acinetobacter baumannii (ATCC 19606) (Acinetobacter baumannii, UniProt A0ABX6CK25); assay: Bocillin-FL fluorescence polarization competition binding, A. baumannii PBP3; conditions: fluorescence polarization competition binding assay using Bocillin-FL; read-out: A. baumannii PBP3 Potency
T2 sequence (A0ABX6CK25 64-610): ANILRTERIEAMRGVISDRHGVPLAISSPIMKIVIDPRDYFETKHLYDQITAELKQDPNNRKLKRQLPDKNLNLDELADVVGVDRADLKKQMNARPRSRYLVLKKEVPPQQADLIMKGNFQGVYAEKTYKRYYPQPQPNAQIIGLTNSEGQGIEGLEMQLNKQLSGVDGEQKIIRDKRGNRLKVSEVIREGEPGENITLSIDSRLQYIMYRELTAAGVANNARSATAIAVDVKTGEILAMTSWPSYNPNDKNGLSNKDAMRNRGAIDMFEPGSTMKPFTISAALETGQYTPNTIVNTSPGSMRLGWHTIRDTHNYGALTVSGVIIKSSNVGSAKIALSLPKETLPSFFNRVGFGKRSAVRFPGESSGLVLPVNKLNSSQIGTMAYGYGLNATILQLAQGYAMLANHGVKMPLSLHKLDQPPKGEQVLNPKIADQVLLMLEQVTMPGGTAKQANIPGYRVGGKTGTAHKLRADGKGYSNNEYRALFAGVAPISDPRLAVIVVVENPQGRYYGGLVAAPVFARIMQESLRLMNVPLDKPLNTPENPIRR
Summary of the method: as §1

[3] = test system: P. aeruginosa (ΔmexAB-oprM); assay: Broth microdilution MIC in CAMHB; assay type: cell-based; conditions: Pseudomonas aeruginosa; read-out: MIC P. aeruginosa ΔmexAB-oprM
[4] = test system: E. coli ATCC 25922; assay: microbe, parasite or virus in culture; assay type: cell-based; conditions: Escherichia coli, ATCC25922, read-out: MIC E. coli 25922
[5] = test system: K. pneumoniae SI-117; assay: microbe, parasite or virus in culture; assay type: cell-based; conditions: Klebsiella pneumoniae, SI117, read-out: MIC K. pneumoniae SI-117
[6] = test system: P. aeruginosa CDC-0054; assay: microbe, parasite or virus in culture; assay type: cell-based; conditions: Pseudomonas aeruginosa, CDC0054, read-out: Minimum inhibitory concentration, P. aeruginosa CDC-0054
[7] = test system: P. aeruginosa ATCC 27853; assay: microbe, parasite or virus in culture; assay type: cell-based; conditions: Pseudomonas aeruginosa, ATCC27853, read-out: Minimum inhibitory concentration, P. aeruginosa ATCC 27853
[8] = test system: P. aeruginosa CDC-0095; assay: microbe, parasite or virus in culture; assay type: cell-based; conditions: Pseudomonas aeruginosa, CDC0095, read-out: Minimum inhibitory concentration, P. aeruginosa CDC-0095

T1 sequence (G3XD46 whole entry): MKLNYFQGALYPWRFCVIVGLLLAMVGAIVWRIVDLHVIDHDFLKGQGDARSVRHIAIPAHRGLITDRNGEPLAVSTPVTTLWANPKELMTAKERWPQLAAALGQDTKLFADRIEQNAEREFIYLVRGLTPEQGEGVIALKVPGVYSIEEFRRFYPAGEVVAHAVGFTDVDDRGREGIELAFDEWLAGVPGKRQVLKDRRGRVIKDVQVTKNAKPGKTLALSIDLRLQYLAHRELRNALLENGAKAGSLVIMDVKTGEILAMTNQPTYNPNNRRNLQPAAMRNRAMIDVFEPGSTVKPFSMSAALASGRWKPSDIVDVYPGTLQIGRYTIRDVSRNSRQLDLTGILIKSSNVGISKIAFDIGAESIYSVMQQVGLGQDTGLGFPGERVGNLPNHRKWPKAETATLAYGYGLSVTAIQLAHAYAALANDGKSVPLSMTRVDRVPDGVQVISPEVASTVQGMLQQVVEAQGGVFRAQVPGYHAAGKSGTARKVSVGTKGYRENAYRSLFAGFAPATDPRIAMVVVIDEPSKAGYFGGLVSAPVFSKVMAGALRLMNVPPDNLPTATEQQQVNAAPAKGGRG

SMILES	pIC50 [1]	pIC50 [2]	MIC [3]	MIC [4]	MIC [5]	MIC [6]	MIC [7]	MIC [8]
CCN1CCN(C(=O)N[C@@H](C(=O)N[C@H]2Cc3ccc(F)c(C(=O)O)c3OB2O)c2ccc(P(=O)(O)O)cc2)C(=O)C1=O (single isomer, unassigned) [Example 10]	> 5.00	> 5.00	32 to 64 µg/mL (≈ 52.8 to 106 µM)	> 128 µg/mL	> 128 µg/mL	–	–	–
CS(=O)(=O)N1CCN(C(=O)N[C@@H](C(=O)N[C@H]2Cc3ccc(F)c(C(=O)O)c3OB2O)c2ccc(P(=O)(O)O)c(F)c2F)C1=O [Example 16, (R)-3-((R)-2-(2,3-difluoro-4-phosphonophenyl)-2-(3-(methylsulfonyl)-2-oxoimidazolidine-1-carboxamido)acetamido)-7-fluoro-2-hydroxy-3,4-dihydro-2H-benzo[e][1,2]oxaborinine-8-carboxylic acid]	> 5.00	> 5.00	> 128 µg/mL	> 128 µg/mL	> 128 µg/mL	–	–	–
CCN1CCN(C(=O)NC(C(=O)N[C@H]2Cc3cccc(C(=O)O)c3OB2O)c2ccc(P(=O)(O)O)c(O)c2)C(=O)C1=O (stereo partly drawn) [Example 21, (3R)-3-(2-(4-ethyl-2,3-dioxopiperazine-1-carboxamido)-2-(3-hydroxy-4-phosphonophenyl)acetamido)-2-hydroxy-3,4-dihydro-2H-benzo[e][1,2]oxaborinine-8-carboxylic acid]	> 5.00	> 5.00	32 to 64 µg/mL (≈ 53 to 106 µM)	8 to 16 µg/mL (≈ 13.2 to 26.5 µM)	> 128 µg/mL	–	–	–
CC(=O)NC(C(=O)N[C@H]1Cc2cccc(C(=O)O)c2OB1O)c1ccc(P(=O)(O)O)cc1 (stereo partly drawn) [Example 26, (3R)-3-(2-acetamido-2-(4-phosphonophenyl)acetamido)-2-hydroxy-3,4-dihydro-2H-benzo[e][1,2]oxaborinine-8-carboxylic acid]	3.60 to 4.30	> 5.00	> 128 µg/mL	> 128 µg/mL	> 128 µg/mL	–	–	–
NC(C(=O)N[C@H]1Cc2ccc(F)c(C(=O)O)c2OB1O)c1ccc(P(=O)(O)O)cc1 (stereo partly drawn) [Example 14, (3R)-3-(2-amino-2-(4-phosphonophenyl)acetamido)-7-fluoro-2-hydroxy-3,4-dihydro-2H-benzo[e][1,2]oxaborinine-8-carboxylic acid]	< 3.60	< 3.60	> 128 µg/mL	> 128 µg/mL	> 128 µg/mL	–	–	–
CCN1CCN(C(=O)NC(C(=O)N[C@H]2Cc3cccc(C(=O)O)c3OB2O)c2ccc(CP(=O)(O)O)cc2)C(=O)C1=O (stereo partly drawn) [Example 20, (3R)-3-(2-(4-ethyl-2,3-dioxopiperazine-1-carboxamido)-2-(4-(phosphonomethyl)phenyl)acetamido)-2-hydroxy-3,4-dihydro-2H-benzo[e][1,2]oxaborinine-8-carboxylic acid]	> 5.00	> 5.00	8 to 16 µg/mL (≈ 13.3 to 26.6 µM)	8 to 16 µg/mL (≈ 13.3 to 26.6 µM)	> 128 µg/mL	–	–	–
CS(=O)(=O)N1CCN(C(=O)N[C@@H](C(=O)N[C@H]2Cc3cccc(C(=O)O)c3OB2O)c2cc(F)c(P(=O)(O)O)c(F)c2)C1=O (single isomer, unassigned) [Example 18]	> 5.00	> 5.00	32 to 64 µg/mL (≈ 49.5 to 99 µM)	32 to 64 µg/mL (≈ 49.5 to 99 µM)	> 128 µg/mL	–	–	–
CS(=O)(=O)N1CCN(C(=O)N[C@@H](C(=O)N[C@H]2Cc3ccc(F)c(C(=O)O)c3OB2O)c2ccc(P(=O)(O)O)c(F)c2)C1=O (single isomer, unassigned) [Example 19]	> 5.00	> 5.00	32 to 64 µg/mL (≈ 49.5 to 99 µM)	> 128 µg/mL	> 128 µg/mL	> 128 µg/mL	> 128 µg/mL	> 128 µg/mL
N[C@@H](C(=O)N[C@H]1Cc2cccc(C(=O)O)c2OB1O)c1ccc(P(=O)(O)O)cc1 (single isomer, unassigned) [Example 171]	< 3.60	3.60 to 4.30	> 128 µg/mL	> 128 µg/mL	> 128 µg/mL	–	–	–
CS(=O)(=O)N1CCN(C(=O)NC(C(=O)N[C@H]2Cc3cccc(C(=O)O)c3OB2O)c2ccc(P(=O)(O)O)c(F)c2O)C1=O (stereo partly drawn) [Example 48, (3R)-3-(2-(3-fluoro-2-hydroxy-4-phosphonophenyl)-2-(3-(methylsulfonyl)-2-oxoimidazolidine-1-carboxamido)acetamido)-2-hydroxy-3,4-dihydro-2H-benzo[e][1,2]oxaborinine-8-carboxylic acid]	4.30 to 5.00	3.60 to 4.30	> 128 µg/mL	> 128 µg/mL	> 128 µg/mL	–	–	–
CS(=O)(=O)N1CCN(C(=O)N[C@@H](C(=O)N[C@H]2Cc3cccc(C(=O)O)c3OB2O)c2ccc(P(=O)(O)O)c(F)c2)C1=O (single isomer, unassigned) [Example 15]	> 5.00	> 5.00	32 to 64 µg/mL (≈ 50.9 to 102 µM)	32 to 64 µg/mL (≈ 50.9 to 102 µM)	> 128 µg/mL	–	–	–
CS(=O)(=O)N1CCN(C(=O)N[C@@H](C(=O)N[C@H]2Cc3cccc(C(=O)O)c3OB2O)c2ccc(P(=O)(O)O)c(F)c2F)C1=O (single isomer, unassigned) [Example 13]	> 5.00	> 5.00	32 to 64 µg/mL (≈ 49.5 to 99 µM)	> 128 µg/mL	> 128 µg/mL	–	–	–
CS(=O)(=O)N1CCN(C(=O)NC(C(=O)N[C@H]2Cc3cccc(C(=O)O)c3OB2O)c2ccc(P(=O)(O)O)c(O)c2)C1=O (stereo partly drawn) [Example 17, (3R)-2-hydroxy-3-(2-(3-hydroxy-4-phosphonophenyl)-2-(3-(methylsulfonyl)-2-oxoimidazolidine-1-carboxamido)acetamido)-3,4-dihydro-2H-benzo[e][1,2]oxaborinine-8-carboxylic acid]	> 5.00	> 5.00	8 to 16 µg/mL (≈ 12.8 to 25.5 µM)	32 to 64 µg/mL (≈ 51.1 to 102 µM)	> 128 µg/mL	–	–	–
CS(=O)(=O)N1CCN(C(=O)NC(C(=O)N[C@H]2Cc3cccc(C(=O)O)c3OB2O)c2ccc(P(=O)(O)O)c(Cl)c2)C1=O (stereo partly drawn) [Example 11, (3R)-3-(2-(3-chloro-4-phosphonophenyl)-2-(3-(methylsulfonyl)-2-oxoimidazolidine-1-carboxamido)acetamido)-2-hydroxy-3,4-dihydro-2H-benzo[e][1,2]oxaborinine-8-carboxylic acid]	> 5.00	> 5.00	32 to 64 µg/mL (≈ 49.6 to 99.3 µM)	32 to 64 µg/mL (≈ 49.6 to 99.3 µM)	> 128 µg/mL	–	–	–
O=C(O)c1cccc2c1OB(O)[C@@H](NC(=O)[C@@H](NC(=O)c1cccn(C(F)F)c1=O)c1ccc(P(=O)(O)O)cc1)C2 (single isomer, unassigned) [Example 190]	> 5.00	–	32 to 64 µg/mL (≈ 54.1 to 108 µM)	> 128 µg/mL	> 128 µg/mL	–	–	–
NC(=O)c1ccc(C(=O)NC(C(=O)N[C@H]2Cc3cccc(C(=O)O)c3OB2O)c2ccc(P(=O)(O)O)cc2)nc1 (stereo partly drawn) [Example 188, (3R)-3-(2-(5-carbamoylpicolinamido)-2-(4-phosphonophenyl)acetamido)-2-hydroxy-3,4-dihydro-2H-benzo[e][1,2]oxaborinine-8-carboxylic acid]	> 5.00	–	32 to 64 µg/mL (≈ 56.3 to 113 µM)	> 128 µg/mL	> 128 µg/mL	–	–	–
O=C(NC(C(=O)N[C@H]1Cc2cccc(C(=O)O)c2OB1O)c1ccc(P(=O)(O)O)cc1)c1ccc(Cl)cn1 (stereo partly drawn) [Example 184, (3R)-3-(2-(5-chloropicolinamido)-2-(4-phosphonophenyl)acetamido)-2-hydroxy-3,4-dihydro-2H-benzo[e][1,2]oxaborinine-8-carboxylic acid]	> 5.00	–	> 128 µg/mL	> 128 µg/mL	> 128 µg/mL	–	–	–
CS(=O)(=O)N1CCC[C@H]1C(=O)N[C@@H](C(=O)N[C@H]1Cc2cccc(C(=O)O)c2OB1O)c1ccc(P(=O)(O)O)cc1 [Example 44, (R)-2-hydroxy-3-((R)-2-((S)-1-(methylsulfonyl)pyrrolidine-2-carboxamido)-2-(4-phosphonophenyl)acetamido)-3,4-dihydro-2H-benzo[e][1,2]oxaborinine-8-carboxylic acid]	> 5.00	–	32 to 64 µg/mL (≈ 53.8 to 108 µM)	> 128 µg/mL	> 128 µg/mL	–	–	–
O=C(O)c1cccc2c1OB(O)[C@@H](NC(=O)C(NC(=O)C1CC1)c1ccc(P(=O)(O)O)cc1)C2 (stereo partly drawn) [Example 30, (3R)-3-(2-(cyclopropanecarboxamido)-2-(4-phosphonophenyl)acetamido)-2-hydroxy-3,4-dihydro-2H-benzo[e][1,2]oxaborinine-8-carboxylic acid]	3.60 to 4.30	–	> 128 µg/mL	> 128 µg/mL	> 128 µg/mL	–	–	–
